{"source": "patent US12623988B2", "about": "“Scaleable preparation of polyketides” (The Regents of the University of California, priority 2019, dated 2026)", "key": {"[1]": {"conditions": "rcm bond, Hoveyda-Grubbs 2nd generation catalyst, toluene, 110.0 °C, 5.33 h"}, "[2]": {"test_system": "HCT-116 cells", "experiment": "Cell viability assay for 1 and 1a-1c in HCT-116 cells (CellTiter Aqueous One, GI50)", "type": "cell-based, human", "conditions": "0 to 1000 nM, 72 h, result in words, compared to 1", "experimental": "Cell culture. The HCT-116 cell line was cultured in McCoy's 5a (Life Technologies) supplemented with 10% fetal bovine serum (FBS), 2 mM L-glutamine, and 100 U mL^−1 of penicillin and 100 μg mL^−1 of streptomycin at 37° C. in an atmosphere of 5% CO2. Both the HeLa and Caov3 cell lines were maintained in DMEM (Life Technologies) supplemented with 10% FBS, 2 mM L-glutamine, and 100 U mL^−1 of penicillin and 100 μg mL^−1 of streptomycin at 37° C. in an atmosphere of 5% CO2.\nCell Viability Assays for 1a-1c. HCT-116 cells were cultured in McCoy's 5a (Life Technologies) supplemented with 10% fetal bovine serum (FBS), 2 mM L-glutamine, 100 U mL^−1 penicillin and 100 μg mL^−1 streptomycin at 37° C. in an atmosphere of 5% CO2. HCT-116 cells were plated at […] cells/well in McCoy's 5a containing 10% FBS. Cells were cultured for 24 h, pretreated with 1 or 1a-1c in DMSO ranging from 0 to 1000 nM for 72 h (cell media contained <0.5% DMSO), and then washed with PBS (2×100 μL). 100 μL of PBS was added to each well, followed by 20 μL of CellTiter Aqueous One Solution (Promega). After 2 h at 37° C., absorbance readings were taken at 490 nm (test wavelength) and 690 nm (reference wavelength). GI50 values were calculated in Prism (GraphPad) using at least three biological replicates."}, "[3]": {"conditions": "estimated, reference (6); cited from earlier work"}, "[4]": {"experiment": "Storage stability of synthetic fragments and intermediates", "conditions": "for stability at ambient conditions: storage"}}, "note": "“Also recorded” adds a separate entry of the source. Read-outs that look alike come from different tables or passages of the source."}
{"compound": "COc1ccc(C2O[C@H]3/C=C/[C@H](C)[C@@H](/C(C)=C/I)OC(=O)C[C@H](O[Si](C)(C)C(C)(C)C)CC[C@@]3(C)O2)cc1", "note": "(stereo partly drawn)", "values": [{"measurement": "ring closure, yield of all isomers", "setting": "[1]; from C=C[C@@H]1OC(c2ccc(OC)cc2)O[C@]1(C)CC[C@H](CC(=O)O[C@H](/C(C)=C/I)[C@@H](C)C=C)O[Si](C)(C)C(C)(C)C, 5.37 mM", "value": 50, "unit": "%"}, {"measurement": "ring closure, yield of all isomers", "setting": "[1]; from C=C[C@@H]1OC(c2ccc(OC)cc2)O[C@]1(C)CC[C@H](CC(=O)O[C@H](/C(C)=C/I)[C@@H](C)C=C)O[Si](C)(C)C(C)(C)C", "value": 51, "unit": "%"}]}
{"compound": "COc1ccc(C2O[C@H]3C=C[C@H](C)[C@@H](/C(C)=C/I)O[13C](=O)C[C@H](O[Si](C)(C)C(C)(C)C)CC[C@@]3(C)O2)cc1", "note": "(stereo partly drawn)", "values": [{"measurement": "ring closure, yield of all isomers", "setting": "[1]; from C=C[C@@H]1OC(c2ccc(OC)cc2)O[C@]1(C)CC[C@H](C[13C](=O)O[C@H](/C(C)=C/I)[C@@H](C)C=C)O[Si](C)(C)C(C)(C)C, 6.52 mM", "value": 50, "unit": "%"}]}
{"compound": "CC[C@H](OC)[C@@H](C)[C@H]1O[C@@H]1[C@@H](O)[C@H](C)/C=C/C=C(\\C)[C@H]1OC(=O)C[C@@H](O)CC[C@@](C)(O)[C@@H](OC(C)=O)/C=C/[C@@H]1C", "note": "[1a, 3S,17S-FD-895]", "values": [{"measurement": "activity (GI50 screening) in human colorectal tumor HCT-116 cells", "setting": "[2]", "value": "compromised activity"}]}
{"compound": "CC[C@H](OC)[C@@H](C)[C@H]1O[C@@H]1[C@@H](O)[C@H](C)/C=C/C=C(\\C)[C@H]1OC(=O)C[C@H](O)CC[C@@](C)(O)[C@H](OC(C)=O)/C=C/[C@@H]1C", "note": "[1b, 7R,17S-FD-895]", "values": [{"measurement": "activity (GI50 screening) in human colorectal tumor HCT-116 cells", "setting": "[2]", "value": "compromised activity; also recorded: lack in activity"}]}
{"compound": "CC[C@H](OC)[C@@H](C)[C@H]1O[C@@H]1[C@@H](O)[C@H](C)/C=C/C=C(\\C)[C@H]1OC(=O)C[C@H](O)CC[C@@](C)(O)[C@@H](OC(C)=O)/C=C/[C@@H]1C", "note": "[compound 1, 17S-FD-895]", "values": [{"measurement": "human maximum tolerated dose (MTD)", "setting": "[3]", "value": "~4", "unit": "mg/m^2"}]}
{"compound": "CC(=O)O[C@H]1/C=C/[C@H](C)[C@@H](/C(C)=C/I)OC(=O)C[C@H](O)CC[C@@]1(C)O", "note": "[compound 2, (2S,3S,6S,7R,10R,E)-7,10-dihydroxy-2-((E)-1-iodoprop-1-en-2-yl)-3,7-dimethyl-12-oxooxacyclododec-4-en-6-yl acetate]", "values": [{"measurement": "stability at ambient conditions", "setting": "[4]", "value": "stable over six months at ambient conditions"}]}
{"compound": "CC[C@H](OC)[C@@H](C)/C=C/CO", "note": "[compound 13, (4S,5S,E)-5-Methoxy-4-methylhept-2-en-1-ol]", "values": [{"measurement": "storage stability at 4° C.", "setting": "[4]; stored at 4° C.", "value": "over 2 years"}]}
{"compound": "C#C[C@@H](C)[C@H](O)[C@H]1O[C@@H]1[C@H](C)[C@H](CC)OC", "note": "[compound 15, (1S,2R)-1-((2R,3R)-3-((2R,3S)-3-methoxypentan-2-yl)oxiran-2-yl)-2-methylbut-3-yn-1-ol]", "values": [{"measurement": "stability at ambient conditions", "setting": "[4]", "value": "stable over six months at ambient conditions"}]}
